# Reference: ChEMBL document CHEMBL2384992, “Conformation constraint of anilides enabling the discovery of tricyclic lactams as potent MK2 non-ATP competitive inhibitors” (Bioorg Med Chem Lett, 2013)
# Legend:
# [1] = system: THP-1; experiment: cells; conditions: Homo sapiens
# Description: Antiinflammatory activity in human THP1 cells assessed as inhibition of LPS-induced TNFalpha production treated 30 mins before LPS addition measured after 3 hrs by ELISA
# [2] = target: Ephrin type-B receptor 4 (Homo sapiens, UniProt P54760); experiment: Inhibition of EPHB4 (unknown origin)
# [3] = target: Glycogen synthase kinase-3 beta (Homo sapiens, UniProt P49841); experiment: Inhibition of GSK3B (unknown origin)
# [4] = target: Testis-specific serine/threonine-protein kinase 2 (Homo sapiens, UniProt Q96PF2); experiment: Inhibition of TSSK2 (unknown origin)
# [5] = target: Serine/threonine-protein kinase Chk1 (Homo sapiens, UniProt O14757); experiment: Inhibition of CHK1 (unknown origin)
# Sequence of Serine/threonine-protein kinase Chk1 (O14757 whole entry): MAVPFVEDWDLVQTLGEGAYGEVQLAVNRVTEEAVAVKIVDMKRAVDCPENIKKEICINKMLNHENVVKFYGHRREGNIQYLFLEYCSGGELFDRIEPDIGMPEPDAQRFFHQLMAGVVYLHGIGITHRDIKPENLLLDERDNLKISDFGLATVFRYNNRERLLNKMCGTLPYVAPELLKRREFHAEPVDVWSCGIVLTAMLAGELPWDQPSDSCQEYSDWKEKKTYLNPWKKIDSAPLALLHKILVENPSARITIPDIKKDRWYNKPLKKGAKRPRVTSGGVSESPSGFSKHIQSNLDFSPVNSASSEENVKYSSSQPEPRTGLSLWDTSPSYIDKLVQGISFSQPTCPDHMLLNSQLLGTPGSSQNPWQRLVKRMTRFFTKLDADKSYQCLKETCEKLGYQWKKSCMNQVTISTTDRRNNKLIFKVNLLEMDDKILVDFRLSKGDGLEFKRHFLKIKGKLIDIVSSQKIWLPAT
# [6] = target: Serine/threonine-protein kinase 3 (Homo sapiens, UniProt Q13188); experiment: Inhibition of MST2 (unknown origin)
# [7] = target: Mitogen-activated protein kinase 1 (Homo sapiens, UniProt P28482); experiment: Inhibition of ERK2 (unknown origin)
# Sequence of Mitogen-activated protein kinase 1 (P28482 whole entry): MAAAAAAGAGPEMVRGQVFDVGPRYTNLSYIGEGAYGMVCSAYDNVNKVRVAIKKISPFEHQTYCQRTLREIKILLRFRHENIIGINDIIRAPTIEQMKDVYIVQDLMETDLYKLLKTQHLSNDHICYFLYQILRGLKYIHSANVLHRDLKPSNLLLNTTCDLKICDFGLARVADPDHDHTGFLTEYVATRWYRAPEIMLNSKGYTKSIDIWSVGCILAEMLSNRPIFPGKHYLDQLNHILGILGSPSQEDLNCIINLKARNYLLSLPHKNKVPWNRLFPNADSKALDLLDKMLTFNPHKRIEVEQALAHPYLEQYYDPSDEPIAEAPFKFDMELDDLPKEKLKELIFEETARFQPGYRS
# [8] = target: Tyrosine-protein kinase Lck (Homo sapiens, UniProt P06239); experiment: Inhibition of LCK (unknown origin)
# [9] = target: Insulin-like growth factor 1 receptor (Homo sapiens, UniProt P08069); experiment: Inhibition of IGF1R (unknown origin)
# Sequence of Insulin-like growth factor 1 receptor (P08069 31-736 limits assumed): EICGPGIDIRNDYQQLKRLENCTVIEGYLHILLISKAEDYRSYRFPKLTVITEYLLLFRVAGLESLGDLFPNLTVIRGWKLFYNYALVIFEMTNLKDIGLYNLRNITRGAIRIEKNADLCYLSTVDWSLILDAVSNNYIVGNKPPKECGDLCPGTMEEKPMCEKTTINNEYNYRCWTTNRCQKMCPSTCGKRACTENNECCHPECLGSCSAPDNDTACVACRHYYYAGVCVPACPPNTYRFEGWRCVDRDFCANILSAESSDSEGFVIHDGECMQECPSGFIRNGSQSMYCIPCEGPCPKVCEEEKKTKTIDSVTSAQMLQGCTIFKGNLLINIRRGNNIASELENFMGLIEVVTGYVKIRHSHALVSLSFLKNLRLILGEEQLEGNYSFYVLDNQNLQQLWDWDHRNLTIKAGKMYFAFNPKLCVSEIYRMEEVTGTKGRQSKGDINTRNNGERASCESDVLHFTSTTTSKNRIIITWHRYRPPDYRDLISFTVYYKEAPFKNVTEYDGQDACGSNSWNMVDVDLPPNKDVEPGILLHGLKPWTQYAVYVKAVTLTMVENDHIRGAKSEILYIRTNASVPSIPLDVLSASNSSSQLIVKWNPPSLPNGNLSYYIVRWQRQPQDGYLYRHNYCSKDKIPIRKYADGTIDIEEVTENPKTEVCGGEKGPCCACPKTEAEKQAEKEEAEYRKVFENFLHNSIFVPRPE
# Sequence of Insulin-like growth factor 1 receptor (P08069 741-1367 limits assumed): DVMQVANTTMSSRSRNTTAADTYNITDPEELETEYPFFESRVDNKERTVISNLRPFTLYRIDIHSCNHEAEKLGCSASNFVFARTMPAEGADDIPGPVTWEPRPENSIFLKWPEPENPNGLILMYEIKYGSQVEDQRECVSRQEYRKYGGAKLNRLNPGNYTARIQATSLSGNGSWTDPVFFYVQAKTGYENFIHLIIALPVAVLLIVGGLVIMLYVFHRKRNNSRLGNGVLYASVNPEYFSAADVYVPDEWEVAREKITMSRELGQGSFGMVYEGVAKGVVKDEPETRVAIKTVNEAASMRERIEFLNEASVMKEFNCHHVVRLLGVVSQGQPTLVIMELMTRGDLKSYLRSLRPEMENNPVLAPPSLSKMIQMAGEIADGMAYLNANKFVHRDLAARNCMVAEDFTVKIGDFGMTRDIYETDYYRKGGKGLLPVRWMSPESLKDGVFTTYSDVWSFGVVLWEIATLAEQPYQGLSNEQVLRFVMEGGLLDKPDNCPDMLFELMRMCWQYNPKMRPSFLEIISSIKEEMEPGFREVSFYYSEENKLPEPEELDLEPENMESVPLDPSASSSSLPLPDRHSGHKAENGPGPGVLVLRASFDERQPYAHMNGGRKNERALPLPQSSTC
# [10] = target: Epidermal growth factor receptor (Homo sapiens, UniProt P00533); experiment: Inhibition of EGFR (unknown origin)
# [11] = target: Calcium/calmodulin-dependent protein kinase type IV (Homo sapiens, UniProt Q16566); experiment: Inhibition of CAMK4 (unknown origin)
# Sequence of Calcium/calmodulin-dependent protein kinase type IV (Q16566 whole entry): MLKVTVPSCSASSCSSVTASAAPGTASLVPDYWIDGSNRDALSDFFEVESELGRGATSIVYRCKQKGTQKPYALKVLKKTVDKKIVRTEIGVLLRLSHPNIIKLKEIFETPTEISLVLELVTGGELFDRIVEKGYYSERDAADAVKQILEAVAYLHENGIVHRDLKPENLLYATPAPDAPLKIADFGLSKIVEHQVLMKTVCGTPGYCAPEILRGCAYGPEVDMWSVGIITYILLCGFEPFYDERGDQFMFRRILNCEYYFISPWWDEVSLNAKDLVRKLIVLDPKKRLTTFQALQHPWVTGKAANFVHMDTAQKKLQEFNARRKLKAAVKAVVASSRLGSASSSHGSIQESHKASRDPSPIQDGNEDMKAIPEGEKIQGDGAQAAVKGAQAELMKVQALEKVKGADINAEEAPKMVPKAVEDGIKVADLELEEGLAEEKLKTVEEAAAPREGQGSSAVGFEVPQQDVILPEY
# [12] = target: Hepatocyte growth factor receptor (Homo sapiens, UniProt P08581); experiment: Inhibition of MET (unknown origin)
# [13] = target: Rho-associated protein kinase 2 (Homo sapiens, UniProt O75116); experiment: Inhibition of ROCK2 (unknown origin)
# [14] = target: Tyrosine-protein kinase JAK2 (Homo sapiens, UniProt O60674); experiment: Inhibition of JAK2 (unknown origin)
# [15] = target: RAC-alpha serine/threonine-protein kinase (Homo sapiens, UniProt P31749); experiment: Inhibition of AKT1 (unknown origin)
# Sequence of RAC-alpha serine/threonine-protein kinase (P31749 whole entry): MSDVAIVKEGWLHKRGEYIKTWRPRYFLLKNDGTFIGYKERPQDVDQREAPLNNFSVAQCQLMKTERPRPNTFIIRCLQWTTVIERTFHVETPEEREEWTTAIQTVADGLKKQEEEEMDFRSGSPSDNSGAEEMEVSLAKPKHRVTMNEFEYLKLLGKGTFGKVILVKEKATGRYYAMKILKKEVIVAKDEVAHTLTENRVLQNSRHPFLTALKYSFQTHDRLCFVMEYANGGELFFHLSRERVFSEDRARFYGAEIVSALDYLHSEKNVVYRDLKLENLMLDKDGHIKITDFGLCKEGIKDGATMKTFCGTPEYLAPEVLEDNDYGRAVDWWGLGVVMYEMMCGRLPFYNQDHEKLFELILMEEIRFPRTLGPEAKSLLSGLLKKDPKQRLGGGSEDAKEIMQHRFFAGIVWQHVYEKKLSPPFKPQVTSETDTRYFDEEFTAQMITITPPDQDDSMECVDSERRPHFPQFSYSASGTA
# [16] = target: Inhibitor of nuclear factor kappa-B kinase subunit beta (Homo sapiens, UniProt O14920); experiment: Inhibition of IKKB (unknown origin)
# Sequence of Inhibitor of nuclear factor kappa-B kinase subunit beta (O14920 whole entry): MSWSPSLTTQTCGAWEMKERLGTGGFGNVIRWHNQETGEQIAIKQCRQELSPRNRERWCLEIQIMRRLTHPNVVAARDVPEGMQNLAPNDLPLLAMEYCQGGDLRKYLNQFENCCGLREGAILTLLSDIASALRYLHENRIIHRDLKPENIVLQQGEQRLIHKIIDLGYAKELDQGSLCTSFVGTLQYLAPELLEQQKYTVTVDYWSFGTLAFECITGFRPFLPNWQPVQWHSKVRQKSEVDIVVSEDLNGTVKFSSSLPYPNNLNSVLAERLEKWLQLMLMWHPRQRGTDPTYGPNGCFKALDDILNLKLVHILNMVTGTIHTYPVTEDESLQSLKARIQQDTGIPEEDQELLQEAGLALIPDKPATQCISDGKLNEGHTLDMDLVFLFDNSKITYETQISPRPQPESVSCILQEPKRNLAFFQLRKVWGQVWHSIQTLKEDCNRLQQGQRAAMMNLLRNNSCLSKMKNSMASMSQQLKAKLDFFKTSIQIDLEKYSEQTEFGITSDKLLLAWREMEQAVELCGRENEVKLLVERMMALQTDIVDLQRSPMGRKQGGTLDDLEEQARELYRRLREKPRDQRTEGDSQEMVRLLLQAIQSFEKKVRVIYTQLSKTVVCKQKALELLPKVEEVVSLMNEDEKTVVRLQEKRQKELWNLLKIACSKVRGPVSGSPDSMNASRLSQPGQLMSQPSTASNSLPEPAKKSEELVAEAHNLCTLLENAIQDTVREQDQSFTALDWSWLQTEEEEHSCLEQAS
# [17] = target: Protein kinase C alpha type (Homo sapiens, UniProt P17252); experiment: Inhibition of PKCA (unknown origin)
# [18] = target: Interleukin-1 receptor-associated kinase 4 (Homo sapiens, UniProt Q9NWZ3); experiment: Inhibition of IRAK4 (unknown origin)
# [19] = target: Serine/threonine-protein kinase Nek2 (Homo sapiens, UniProt P51955); experiment: Inhibition of NEK2 (unknown origin)
# [20] = target: Serine/threonine-protein kinase PLK3 (Homo sapiens, UniProt Q9H4B4); experiment: Inhibition of PLK3 (unknown origin)
# [21] = target: Casein kinase I isoform delta (Homo sapiens, UniProt P48730); experiment: Inhibition of CSNK1D (unknown origin)
# [22] = target: Receptor-type tyrosine-protein kinase FLT3 (Homo sapiens, UniProt P36888); experiment: Inhibition of FLT3 (unknown origin)
# Sequence of Receptor-type tyrosine-protein kinase FLT3 (P36888 whole entry): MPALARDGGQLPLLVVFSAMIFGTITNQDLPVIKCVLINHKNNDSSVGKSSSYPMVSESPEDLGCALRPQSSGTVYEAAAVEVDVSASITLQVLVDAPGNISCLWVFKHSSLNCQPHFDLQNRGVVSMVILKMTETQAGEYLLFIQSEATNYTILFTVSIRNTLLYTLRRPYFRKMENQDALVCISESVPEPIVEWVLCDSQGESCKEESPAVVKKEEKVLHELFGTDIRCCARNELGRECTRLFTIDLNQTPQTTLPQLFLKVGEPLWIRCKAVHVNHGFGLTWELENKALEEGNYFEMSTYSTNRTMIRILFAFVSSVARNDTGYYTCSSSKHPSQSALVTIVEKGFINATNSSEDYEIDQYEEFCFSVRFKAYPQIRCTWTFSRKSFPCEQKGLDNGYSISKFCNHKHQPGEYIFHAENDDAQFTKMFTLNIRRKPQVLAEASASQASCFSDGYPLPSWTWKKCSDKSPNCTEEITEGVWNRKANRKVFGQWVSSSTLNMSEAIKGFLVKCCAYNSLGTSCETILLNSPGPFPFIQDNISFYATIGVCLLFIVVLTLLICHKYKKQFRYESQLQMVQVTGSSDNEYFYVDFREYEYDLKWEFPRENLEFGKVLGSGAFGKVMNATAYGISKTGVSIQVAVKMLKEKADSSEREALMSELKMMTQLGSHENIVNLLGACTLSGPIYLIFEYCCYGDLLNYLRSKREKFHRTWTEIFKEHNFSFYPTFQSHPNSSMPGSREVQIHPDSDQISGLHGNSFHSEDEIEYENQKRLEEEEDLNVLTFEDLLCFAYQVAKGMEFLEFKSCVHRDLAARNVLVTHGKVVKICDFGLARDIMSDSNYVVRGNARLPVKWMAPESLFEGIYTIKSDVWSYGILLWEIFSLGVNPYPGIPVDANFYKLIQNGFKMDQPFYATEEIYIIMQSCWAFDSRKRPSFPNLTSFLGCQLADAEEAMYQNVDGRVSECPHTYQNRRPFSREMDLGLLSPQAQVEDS
# [23] = target: MAP kinase-activated protein kinase 2 (Homo sapiens, UniProt P49137)
# Description: Inhibition of MK2 (unknown origin) phosphorylation using TAMRA labeled peptide as substrate incubated 30 mins before substrate addition measured after 30 mins
# [24] = Toxicity in human SW1353 cells; type: cell-based
smiles,measurement,setting,value
N#Cc1ccc(-c2cc3c(o2)C(=O)N(Cc2ccccc2-c2cncnc2)c2ccc(N4CCNCC4)cc2C3)cc1,EC50,[1],0.15 µM
O=C1c2oc(-c3ccc(Cl)cc3)cc2Cc2cc(N3CCNCC3)ccc2N1Cc1ccccc1-c1cccnc1,IC50,[2],> 30 µM
same,IC50,[3],> 30 µM
same,IC50,[4],> 30 µM
same,IC50,[5],> 18 µM
same,IC50,[6],> 12 µM
same,IC50,[7],> 30 µM
same,IC50,[8],> 19 µM
same,IC50,[9],> 30 µM
same,IC50,[10],> 30 µM
same,IC50,[11],27 µM
same,IC50,[12],> 30 µM
same,IC50,[13],> 20 µM
same,IC50,[14],11 µM
same,IC50,[15],16 µM
same,IC50,[16],24 µM
same,IC50,[17],10 µM
same,IC50,[18],26 µM
same,IC50,[19],13 µM
same,IC50,[20],> 30 µM
same,IC50,[21],> 30 µM
same,IC50,[22],> 30 µM
same,IC50,[23],0.022 µM
O=C1c2oc(-c3ccc(Cl)cc3)cc2Cc2cc(N3CCNCC3)ccc2N1Cc1ccccn1,CC50,[24],17.4 µM
